# System: HT29 cells
# Experiment: Proliferation assay for HT29 colorectal cancer cells (CellTiter-Glo cell viability)
# Format: cell-based
# Conditions: Homo sapiens, HT-29; HT29 colorectal cancer cell line, 72 hours, ATP detection
# Protocol: HT-29 which is a commercially available colorectal cancer cell line was treated with trypsin-EDTA, incubated, and seeded in a 96 well plate. […] The treated cells were incubated for further 72 hours and cell viability was measured by an ATP detection method (CellTiter-Glo LuminescentCell Viability Assay, Promega).
# In order to confirm the anticancer effect of the compounds according to the present invention, a proliferation assay for HT29 cells which are a colorectal cancer cell line was performed by the above method, and IC50 values as a result are listed in the following Table 4: […]
row,SMILES,IC50 [µM]
1,COCCCN1C(=O)c2cccc3c(NC(=O)C4CCCCN4S(=O)(=O)c4ccc(-c5ccccn5)s4)ccc1c23 (centres unmarked) [Compound 118],2.9
2,COCCCN1C(=O)c2cccc3c(NC(=O)C4CCCN(S(=O)(=O)c5sc(NC(C)=O)nc5C)C4)ccc1c23 (centres unmarked) [Compound 47],29.2
3,O=C(Nc1ccc2c3c(cccc13)C(=O)N2Cc1ccccc1)C1CCCCN1S(=O)(=O)c1ccc([N+](=O)[O-])cc1 (centres unmarked) [Compound 6],7.29
4,COCCCN1C(=O)c2cccc3c(NC(=O)C4CCCN(S(=O)(=O)c5ccc6c(c5)OCO6)C4)ccc1c23 (centres unmarked) [Compound 56],9.8
5,Cc1ccc(S(=O)(=O)N2CCCCC2C(=O)Nc2ccc3c4c(cccc24)C(=O)N3Cc2ccccc2)cc1 (centres unmarked) [Compound 5],7.1
6,O=C(Nc1ccc2c3c(cccc13)C(=O)N2Cc1ccncc1)C1CCCCN1S(=O)(=O)c1cccs1 (centres unmarked) [Compound 18],26.4
7,COCCCN1C(=O)c2cccc3c(NC(=O)C4CCCN(S(=O)(=O)c5ccc6c(c5)CCO6)C4)ccc1c23 (centres unmarked) [Compound 34],13.3
8,COCCCN1C(=O)c2cccc3c(NC(=O)C4CCCN(S(=O)(=O)c5ccc(Cl)s5)C4)ccc1c23 (centres unmarked) [Compound 29],12.2
9,COCCCN1C(=O)c2cccc3c(NC(=O)C4CCCCN4S(=O)(=O)c4cccc(C(F)(F)F)n4)ccc1c23 (centres unmarked) [Compound 82],30.6
10,COCCCN1C(=O)c2cccc3c(NC(=O)C4CCCCN4S(=O)(=O)c4ccc5c(c4)CCO5)ccc1c23 (centres unmarked) [Compound 39],20.3
11,COCCCN1C(=O)c2cccc3c(NC(=O)C4CCCCN4S(=O)(=O)c4sc(NC(C)=O)nc4C)ccc1c23 (centres unmarked) [Compound 43],35
12,COCCCN1C(=O)c2cccc3c(NC(=O)C4CCCCN4S(=O)(=O)c4ccc(Cl)s4)ccc1c23 (centres unmarked) [Compound 30],22
13,COCCCN1C(=O)c2cccc3c(NC(=O)C4CCCCN4S(=O)(=O)c4cccc5nsnc45)ccc1c23 (centres unmarked) [Compound 79],14
14,COCCCN1C(=O)c2cccc3c(NC(=O)C4CCCCN4S(=O)(=O)c4scnc4C)ccc1c23 (centres unmarked) [Compound 81],45.4
15,COCCCN1C(=O)c2cccc3c(NC(=O)C4CCCCN4S(=O)(=O)c4cc([N+](=O)[O-])c(Cl)s4)ccc1c23 (centres unmarked) [Compound 38],2.2
16,COCCN1C(=O)c2cccc3c(NC(=O)C4CCCCN4S(=O)(=O)c4cccs4)ccc1c23 (centres unmarked) [Compound 12],30.7
17,COCCCN1C(=O)c2cccc3c(NC(=O)C4CCCN(S(=O)(=O)c5cc6c(s5)CCCC6)C4)ccc1c23 (centres unmarked) [Compound 65],17.5
18,O=C(Nc1ccc2c3c(cccc13)C(=O)N2CCCO)C1CCCCN1S(=O)(=O)c1cccs1 (centres unmarked) [Compound 45],40.4
19,CS(=O)(=O)N1CCCCC1C(=O)Nc1ccc2c3c(cccc13)C(=O)N2Cc1ccccc1 (centres unmarked) [Compound 9],25.3
20,COCCCN1C(=O)c2cccc3c(NC(=O)C4CCCN(S(=O)(=O)c5cc(Br)c(Br)s5)C4)ccc1c23 (centres unmarked) [Compound 61],5.6

# System: YAP-TEAD
# Experiment: Luciferase assay of YAP-TEAD binding inhibition (TEAD luciferase reporter 8XGTIIC in HEK293T cells)
# Format: cell-based
# Conditions: 10 μM, 24 hours, luciferase normalized with β-galactosidase
# Protocol: A Luciferase assay which allows an inhibition degree of YAP-TEAD, previously reported in Cancers 2018, 10(5), 140, was used to measure an in vitro binding inhibition rate of YAP-TEAD.
# HEK293T cells were purchased from American Type Culture Collection and incubated in DMEM media containing 10% FBS, L-glutamine, and penicillin/streptomycin. The HEK293T cells were seeded in a 24 well plate at a density of 1×10^5, and coated with polyethyleneamine (10 μg/mL). These cells were transfected with 8XGTIIC-luciferase (Addgene reference 34615) which is TEAD luciferase reporter plasmid and control β-galactosidase plasmid CMV-β-Gal using a lipofectamine 2000 reagent (Life Technologies, Inc.) according to the manufacturer's manual. Thereafter, the compound of the present invention was treated at a concentration of 10 μM for 24 hours, the cells were lysed using a Reporter lysis buffer (Promega, France), luciferase activity was read with a Mithras LB940 plate reader, and then normalization was performed with β-galactosidase.
row,SMILES,Inhibition(%)
1,COCCCN1C(=O)c2cccc3c(NC(=O)C4CCCN(S(=O)(=O)c5ccc(F)cc5)C4)ccc1c23 (centres unmarked) [Compound 161],88
2,COCCCN1C(=O)c2cccc3c(NC(=O)C4CCCCN4S(=O)(=O)c4ccc(N)cc4)ccc1c23 (centres unmarked) [Compound 145],53
3,COCCCN1C(=O)c2cccc3c(NC(=O)C4CCCCN4S(=O)(=O)c4ccc(-c5ccccn5)s4)ccc1c23 (centres unmarked) [Compound 118],84
4,COCCCN1C(=O)c2cccc3c(NC(=O)C4CCCN(S(=O)(=O)c5ccccc5)C4)ccc1c23 (centres unmarked) [Compound 137],87
5,COc1ccc(CCN2C(=O)c3cccc4c(NC(=O)[C@H]5CC[C@H](NS(=O)(=O)c6cccs6)CC5)ccc2c34)cc1 [Compound 25],61
6,COCCCN1C(=O)c2cccc3c(NC(=O)C4CCCN(S(=O)(=O)c5c(C)n[nH]c5C)C4)ccc1c23 (centres unmarked) [Compound 36],54
7,COCCCN1C(=O)c2cccc3c(NC(=O)C4CCCN(S(=O)(=O)c5ccc6c(c5)OCO6)C4)ccc1c23 (centres unmarked) [Compound 56],63
8,COc1ccc(CCN2C(=O)c3cccc4c(NC(=O)C5CCC(NS(=O)(=O)c6cccs6)CC5)ccc2c34)cc1 (centres unmarked) [Compound 22],78
9,O=C(Nc1ccc2c3c(cccc13)C(=O)N2CCS(=O)(=O)c1ccccc1)C1CCCN(S(=O)(=O)c2ccc3c(c2)CCO3)C1 (centres unmarked) [Compound 155],66
10,O=C(Nc1ccc2c3c(cccc13)C(=O)N2Cc1ccccc1)C1CCCN1S(=O)(=O)c1cccs1 (centres unmarked) [Compound 3],63
11,COCCCN1C(=O)c2cccc3c(NC(=O)C4CCCN(S(=O)(=O)c5ccc6c(c5)CCO6)C4)ccc1c23 (centres unmarked) [Compound 34],87
12,COCCCN1C(=O)c2cccc3c(NC(=O)C4CCCN(S(=O)(=O)c5ccc(Cl)s5)C4)ccc1c23 (centres unmarked) [Compound 29],87
13,CS(=O)(=O)N1CCC(CCN2C(=O)c3cccc4c(NC(=O)C5CCCCN5S(=O)(=O)c5ccc6c(c5)OCCO6)ccc2c34)CC1 (centres unmarked) [Compound 134],62
14,COCCCN1C(=O)c2cccc3c(NC(=O)C4CCCCN4S(=O)(=O)c4ccc5c(c4)CCO5)ccc1c23 (centres unmarked) [Compound 39],66
15,COCCCN1C(=O)c2cccc3c(NC(=O)C4CCCCN4S(=O)(=O)c4ccc(NC(C)=O)cc4)ccc1c23 (centres unmarked) [Compound 153],55
16,COCCCN1C(=O)c2cccc3c(NC(=O)C4CCCCN4S(=O)(=O)c4sc(NC(C)=O)nc4C)ccc1c23 (centres unmarked) [Compound 43],50
17,COCCCN1C(=O)c2cccc3c(NC(=O)C4CCCCN4S(=O)(=O)c4ccc(Cl)s4)ccc1c23 (centres unmarked) [Compound 30],56
18,COCCCN1C(=O)c2cccc3c(NC(=O)C4CCCCN4S(=O)(=O)c4cccc5nsnc45)ccc1c23 (centres unmarked) [Compound 79],71
19,CS(=O)(=O)N1CCC(CCN2C(=O)c3cccc4c(NC(=O)C5CCCCN5S(=O)(=O)c5ccc6c(c5)CCO6)ccc2c34)CC1 (centres unmarked) [Compound 133],59
20,CS(=O)(=O)N1CCC(CCN2C(=O)c3cccc4c(NC(=O)C5CCCCN5S(=O)(=O)c5ccco5)ccc2c34)CC1 (centres unmarked) [Compound 139],98
21,COCCCN1C(=O)c2cccc3c(NC(=O)C4CCCN(S(=O)(=O)c5ccc6c(c5)OC(F)(F)O6)C4)ccc1c23 (centres unmarked) [Compound 149],59
22,COCCCN1C(=O)c2cccc3c(NC(=O)C4CCCN(S(=O)(=O)c5ccc(-c6ccccc6)cc5)C4)ccc1c23 (centres unmarked) [Compound 151],57
23,COCCCN1C(=O)c2cccc3c(NC(=O)C4CCCN(S(=O)(=O)c5cc(Cl)sc5Cl)C4)ccc1c23 (centres unmarked) [Compound 71],91

row,SMILES,Inhibition(%)
1,O=C(Nc1ccc2c3c(cccc13)C(=O)N2CCS(=O)(=O)c1ccccc1)C1CCCCN1S(=O)(=O)c1ccc2c(c1)CCO2 (centres unmarked) [Compound 156],64
2,COCCCN1C(=O)c2cccc3c(NC(=O)C4CCCN(S(=O)(=O)c5ccc6c(c5)OCCO6)C4)ccc1c23 (centres unmarked) [Compound 49],51
3,COCCCN1C(=O)c2cccc3c(NC(=O)C4CCCCN4S(=O)(=O)c4cccc(F)c4)ccc1c23 (centres unmarked) [Compound 162],74
4,CS(=O)(=O)N1CCC(CCN2C(=O)c3cccc4c(NC(=O)C5CCCCN5S(=O)(=O)c5cccs5)ccc2c34)CC1 (centres unmarked) [Compound 106],99.2
5,COCCCN1C(=O)c2cccc3c(NC(=O)C4CCCN(S(=O)(=O)c5cccs5)C4)ccc1c23 (centres unmarked) [Compound 28],81
6,O=C(Nc1ccc2c3c(cccc13)C(=O)N2CCc1ccc(Cl)cc1Cl)C1CCCCN1S(=O)(=O)c1cccs1 (centres unmarked) [Compound 26],100
7,COCCCN1C(=O)c2cccc3c(NC(=O)C4CCCN(S(=O)(=O)c5ccc6c7c(cccc57)C(=O)N6)C4)ccc1c23 (centres unmarked) [Compound 55],50
8,CS(=O)(=O)N1CCC(CCN2C(=O)c3cccc4c(NC(=O)C5CCCN(S(=O)(=O)c6cccs6)C5)ccc2c34)CC1 (centres unmarked) [Compound 131],78
9,COCCCN1C(=O)c2cccc3c(NC(=O)C4CCCN(S(=O)(=O)c5c(C)c(C)c6c(c5C)CC(C)(C)O6)C4)ccc1c23 (centres unmarked) [Compound 50],63
10,O=C(Nc1ccc2c3c(cccc13)C(=O)N2CCc1c[nH]c2ccccc12)C1CCCCN1S(=O)(=O)c1cccs1 (centres unmarked) [Compound 13],50
11,COc1ccc(CCN2C(=O)c3cccc4c(NC(=O)C5CCCN(S(=O)(=O)c6cccs6)C5)ccc2c34)cc1 (centres unmarked) [Compound 24],61
12,COCCCN1C(=O)c2cccc3c(NC(=O)C4CCCN(S(=O)(=O)c5ccc(-c6ccccc6)s5)C4)ccc1c23 (centres unmarked) [Compound 158],61
13,COCCCN1C(=O)c2cccc3c(NC(=O)C4CCCN(S(=O)(=O)c5ccc(OCCN(C)C)c(C)c5)C4)ccc1c23 (centres unmarked) [Compound 123],54
14,CS(=O)(=O)N1CCC(CCN2C(=O)c3cccc4c(NC(=O)C5CCCN(S(=O)(=O)c6ccco6)C5)ccc2c34)CC1 (centres unmarked) [Compound 136],80
15,COCCCN1C(=O)c2cccc3c(NC(=O)C4CCCN(S(=O)(=O)c5ccc(-c6ccccn6)s5)C4)ccc1c23 (centres unmarked) [Compound 119],68
16,COCCCN1C(=O)c2cccc3c(NC(=O)C4CCCN(S(=O)(=O)c5csc6ccccc56)C4)ccc1c23 (centres unmarked) [Compound 76],87
17,COCCCN1C(=O)c2cccc3c(NC(=O)C4CCCN(S(=O)(=O)c5c(C)noc5C)C4)ccc1c23 (centres unmarked) [Compound 35],56
18,COCCCN1C(=O)c2cccc3c(NC(=O)C4CCCCN4S(=O)(=O)c4ccco4)ccc1c23 (centres unmarked) [Compound 160],53
19,COCCCN1C(=O)c2cccc3c(NC(=O)C4CCCCN4S(=O)(=O)c4ccc(-c5ccccc5)s4)ccc1c23 (centres unmarked) [Compound 159],84
20,COCCCN1C(=O)c2cccc3c(NC(=O)C4CCCN(S(=O)(=O)c5sc6ccc(Cl)cc6c5C)C4)ccc1c23 (centres unmarked) [Compound 48],58
21,COCCCN1C(=O)c2cccc3c(NC(=O)C4CCCCN4S(=O)(=O)c4ccccc4)ccc1c23 (centres unmarked) [Compound 138],79
22,COCCCN1C(=O)c2cccc3c(NC(=O)C4CCCCN4S(=O)(=O)c4ccc(-c5ccccc5)cc4)ccc1c23 (centres unmarked) [Compound 152],77
